Reference: patent publication US20230255938A1, “COMPOSITION FOR INHIBITING SEBUM SECRETION COMPRISING FABP4 INHIBITOR” (THE INDUSTRY & ACADEMIC COOPERATION IN CHUNGNAM NATIONAL …, priority 2022, published 2023)

Assays:
Assay type in all cases: cell-based
PPAR-γ = assay: Western blotting of PPAR-γ in IGF-1-treated immortalized human sebocytes; settings: 1, 2 or 5 μM BMS309403 for 1 hour, then 50 ng/mL IGF-1; Western blot, FIG. 1 upper left
Protocol: (§1) Immortalized human sebocytes were used for the experiment. The cell lines were established as previously described. All procedures were approved by the Institutional Committee of Chungnam National University Hospital. The immortalized human sebocytes were cultured in Sebomed medium (Biochrom, Berlin, Germany) supplemented with 10% fetal bovine serum (Gibco BRL, Rockville, Md., USA) and 5 ng/mL of recombinant human EGF (Invitrogen, Grand Island, N.Y., USA).
(§2) After harvesting, the cells were lysed in protein extraction solution (Intron, Daejeon, Korea). Equal amounts of protein were then loaded and separated by […], and then the proteins were transferred onto nitrocellulose membranes (Pall Corp., Port Washington, N.Y., USA). After blocking with 5% skim milk, the membranes were incubated with various primary antibodies. The blot was reacted with a secondary antibody conjugated with peroxidase, and were visualized for specific proteins with ECL (BIOMAX, Seoul, Korea). The primary antibodies used in western blot analysis were as follows: Actin, SREBP-1(Santa Cruz, Calif.), PPAR-γ, phospho-IGFR (p-IGFR), phospho-Akt (Cell Signaling Technology, Danvers, Mass.)
(§3) The effect of BMS309403 on IGF-1-induced lipid synthesis was measured using an immortalized human sebaceous cell line established in a previous study. Immortalized human sebocytes were treated with 1, 2 or 5 μM of BMS309403. […]

[1] = tested on: immortalized human sebocytes; assay: TLC of intracellular lipids (14C-acetate), IGF-1-induced lipid synthesis; settings: 1, 2 or 5 μM; TLC 48 hours after IGF-1 (50 ng/mL) treatment; FIG. 1 right
Protocol: as §1
For quantitative analysis of intracellular lipids, the present invention used the TLC method as used in previous studies. Briefly, immortalized human sebocytes were cultured in a medium containing 2 μCi of ^14C-acetate and sodium salt (PerkinElmer, Boston, Mass., USA) and allowed to react for 4 hours. Intracellular lipids were extracted with chloroform and methanol (2:1, v/v). The solvent was evaporated and the lipid was resuspended in chloroform. TLC (TLC silica gel 60 F254, Merck KgaA) was used to separate intracellular lipids. After development with hexane and ethyl acetate (6:1, v/v), intracellular lipids were visualized by radioactivity measurement.
The effect of BMS309403 on IGF-1-induced lipid synthesis was measured using an immortalized human sebaceous cell line established in a previous study. Immortalized human sebocytes were treated with 1, 2 or 5 μM of BMS309403. After treatment with BMS309403 for 1 hour, sebocytes were treated with 50 ng/mL of IGF-1 to induce differentiation and lipid synthesis.
IGF-1 increased the Intracellular lipid synthesis such as cholesterol, triglycerides, wax esters and squalene in immortalized human sebocytes.

phospho-IGFR (p-IGFR) = assay: Western blotting of phospho-IGFR in IGF-1-treated immortalized human sebocytes; settings: 1, 2 or 5 μM BMS309403 for 1 hour, then 50 ng/mL IGF-1; Western blot, FIG. 1 lower left
Protocol: as §1, §2, §3

phospho-Akt = assay: Western blotting of phospho-Akt in IGF-1-treated immortalized human sebocytes; settings: 1, 2 or 5 μM BMS309403 for 1 hour, then 50 ng/mL IGF-1; Western blot, FIG. 1 lower left
Protocol: as §1, §2, §3

SREBP-1 = assay: Western blotting of SREBP-1 in IGF-1-treated immortalized human sebocytes; settings: 1, 2 or 5 μM BMS309403 for 1 hour, then 50 ng/mL IGF-1; Western blot, FIG. 1 upper left
Protocol: as §1, §2, §3

With CCc1c(-c2ccccc2)c(-c2ccccc2)nn1-c1ccccc1-c1cccc(OCC(=O)O)c1 [BMS309403] the “level of PPAR-γ (transcription factor related to sebocyte differentiation)” value (PPAR-γ) was “decreased their levels in a dose-dependent manner”, the “IGF-1-induced lipid synthesis (cholesterol, triglycerides, wax esters and squalene)” value [1] was “reduced IGF-1-induced lipid synthesis” and the intracellular lipid accumulation [1] was “reduced intracellular lipid accumulation in a dose-dependent manner”. For the same molecule, the synthesis of squalene [1] was “significantly reduced”, the “synthesis of wax esters” value [1] was “significantly reduced” and the “phosphorylation of IGFR” value (phospho-IGFR (p-IGFR)) was “markedly reduced phosphorylation of IGFR and Akt in a dose-dependent manner”. For the same molecule, the “phosphorylation of Akt” value (phospho-Akt) was “markedly reduced phosphorylation of IGFR and Akt in a dose-dependent manner” and the “level of SREBP-1 (transcription factor related to sebocyte differentiation)” value (SREBP-1) was “decreased their levels in a dose-dependent manner”.
